Laboratory results published in PMC6744473, “Structure of the thermo-sensitive TRP channel TRP1 from the alga Chlamydomonas reinhardtii” (Nature Communications, 2019).
Structures can show the parent of a compound that is named as a salt. Each block holds one molecule with its values, some of them ahead of it.

Tests used:
crTRP1 [1] = molecular target: T1, crTRP1 (Chlamydomonas reinhardtii, UniProt Q0Z852); experiment: planar lipid bilayer single-channel recording; type: biochemical; settings: inhibitor 10 µM; 2.5 µM PIP2, 28 °C, +120 mV
T1 construct: HEK 293S GnTI-; purified in GDN or LMNG; homotetramer; from primer N-terminus MKVAPAPASGQP, C-terminus TAAAGH before the tag
T1 sequence (Q0Z852 1-901): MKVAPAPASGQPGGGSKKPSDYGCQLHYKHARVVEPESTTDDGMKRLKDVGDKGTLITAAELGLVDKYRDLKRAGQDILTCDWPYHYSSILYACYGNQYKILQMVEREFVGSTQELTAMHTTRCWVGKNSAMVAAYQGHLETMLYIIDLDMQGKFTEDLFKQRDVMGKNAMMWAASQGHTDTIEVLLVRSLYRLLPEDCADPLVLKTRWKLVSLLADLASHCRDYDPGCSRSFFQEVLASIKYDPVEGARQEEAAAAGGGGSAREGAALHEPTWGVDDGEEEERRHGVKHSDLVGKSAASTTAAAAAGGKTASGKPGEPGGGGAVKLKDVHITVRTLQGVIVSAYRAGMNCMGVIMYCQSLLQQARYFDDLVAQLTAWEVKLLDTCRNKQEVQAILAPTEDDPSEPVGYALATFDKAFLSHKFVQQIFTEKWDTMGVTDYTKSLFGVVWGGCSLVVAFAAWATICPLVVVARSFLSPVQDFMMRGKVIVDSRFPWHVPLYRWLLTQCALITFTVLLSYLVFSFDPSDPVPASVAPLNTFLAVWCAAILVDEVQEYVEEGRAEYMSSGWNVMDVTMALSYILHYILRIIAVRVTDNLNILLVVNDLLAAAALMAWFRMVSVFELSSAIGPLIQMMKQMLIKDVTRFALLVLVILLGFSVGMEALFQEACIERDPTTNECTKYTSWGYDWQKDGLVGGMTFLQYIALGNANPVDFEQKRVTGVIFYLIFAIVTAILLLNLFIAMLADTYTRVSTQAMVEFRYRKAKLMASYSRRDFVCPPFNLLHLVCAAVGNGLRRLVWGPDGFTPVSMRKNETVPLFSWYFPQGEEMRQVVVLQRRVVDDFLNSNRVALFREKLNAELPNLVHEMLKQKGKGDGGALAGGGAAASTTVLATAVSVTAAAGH

[2] = molecular target: transient receptor potential (TRP) channel crTRP1 from Chlamydomonas reinhardtii (Chlamydomonas reinhardtii); experiment: cryo-EM structure; crTRP1 in MSP2N2 nanodiscs (POPC:POPE 3:1; 150 mM KCl, 20 mM Hepes pH 7.4, 1 µM CaCl2, 20 µM MgCl2, no detergent); grids frozen at 22 °C; 3.45 Å; C2 symmetry; self-association: homotetramer
[3] = molecular target: transient receptor potential (TRP) channel crTRP1 from Chlamydomonas reinhardtii (Chlamydomonas reinhardtii); experiment: cryo-EM structure; crTRP1 in detergent GDN (20 mM Tris pH 8.0, 150 mM NaCl, 0.01% GDN, 1 mM BME, 10 mM TCEP added); grids frozen at 4 °C; 3.53 Å; self-association: homotetramer
crTRP1 [4] = molecular target: T2, crTRP1 (Chlamydomonas reinhardtii, UniProt Q0Z852); experiment: planar lipid bilayer single-channel recording; type: biochemical; settings: activator test; deletion borders not given, only primers; loss of activation
T2 construct: HEK 293S GnTI-; purified in GDN or LMNG; homotetramer; from primer N-terminus MKVAPAPASGQP, C-terminus TAAAGH before the tag

crTRP1 [5] = molecular target: T1, crTRP1; experiment: planar lipid bilayer single-channel recording; type: biochemical; settings: activator 2.5 µM; POPG/POPC/POPE bilayer, pH 7.2, 28 °C; diC8 form added to both compartments

Molecule: CC(C)(C)c1ccc(NC(=O)N2CCN(c3ncccc3Cl)CC2)cc1 [BCTC, N-(4-tertiarybutylphenyl)-4-(3-cholorphyridin-2-yl)tetrahydropyrazine-1(2 H)-carbox-amide]
Po change at 10 μM (crTRP1 [1]): BCTC) strongly suppressed crTRP1-mediated currents (Fig. 1g, h)

stoichiometry N [2]: 4
stoichiometry N [3]: 4
Molecule: transient receptor potential (TRP) channel crTRP1 from Chlamydomonas reinhardtii (natural protein)

Molecule: CCCCCCCC(=O)OC[C@H](COP(=O)(O)O[C@@H]1[C@H](O)[C@H](O)[C@@H](OP(=O)(O)O)[C@H](OP(=O)(O)O)[C@H]1O)OC(=O)CCCCCCC [PIP2, 1-(1,2R-dioctanoylphosphatidyl)inositol-4,5-bisphosphate, trisodium salt]
planar lipid bilayer single-channel recording (crTRP1 [4]): deleting the entire pre-S1 elbow resulted in a greatly reduced Po and loss of activation by PIP2
planar lipid bilayer single-channel recording (crTRP1 [5]): Addition of PIP2 readily evoked channel openings.
